Measurements: publication PMC3397457, “Preclinical Evaluation of Anticancer Efficacy and Pharmacological Properties of FBA-TPQ, a Novel Synthetic Makaluvamine Analog” (Marine Drugs, 2012)
Read-outs that look alike come from different tables or passages of the source.

Assays:
Panc-1 cells = assay: MTT cell survival assay, Panc-1; format: cell-based; settings: Homo sapiens, Panc-1, 72 h, read-out: Cytotoxicity IC50
Protocol: We evaluated the effects of FBA-TPQ on the survival of several human pancreatic cancer cell lines, including HPAC (p53^+/+), Panc-1(p53^+/−), and Mia PaCa-2(p53^+/−), as well as normal IRM90 fetal fibroblast cells (Figure 2a). Cells were exposed to various concentrations of the test compound (0–10 µM) for 72 h, and cell survival rates were determined by the MTT assay, using a procedure reported previously. FBA-TPQ exerted potent effects against the test cancer cell lines, leading to significant decreases in cell viability.
Human pancreatic cancer cells were obtained from the American Type Culture Collection (Rockville, MD). All cell culture media contained 10% FBS and 1% penicillin/streptomycin. […]
The effect of the test compound on human pancreatic cancer cell viability, expressed as the percentage of cell survival, was determined using the MTT (3-(4,5-dimethylthiazol-2-yl)-2,5-diphenyl tetrazolium bromide) assay. […] The absorbance at 570 nm was recorded using an OPTImax microplate reader (Molecular Devices; Sunnyvale, CA, USA). The cell survival percentages were calculated by dividing the mean OD of compound-containing wells by that of DMSO-containing control wells. […]

[1] = Pharmacokinetics and tissue distribution in BALB/c mice; format: in vivo; settings: for Vd: read-out: Vss
Protocol: To assess the disposition of FBA-TPQ in vivo, pharmacokinetic studies in BALB/c were conducted. The results of the mean plasma concentration-time curves of FBA-TPQ, and tissue concentration-time curves of FBA-TPQ, after intravenous or intraperitoneal injection in BALB/c mice are presented in Figure 5. Two-compartmental model (WinNonlin 6.0 Model 7, Pharsight Corporation: Mountain View, CA, USA, 2009) was used to analyze the data obtained following intravenous (iv) and intraperitoneal (ip) administration of the compound.
Female BALB/c (18–20 g) mice were purchased from Harlan Laboratories (Indianapolis, IN). All animals were fed with commercial diet and water ad libitum and were on an alternating 12 h light/dark cycle. The mice were randomly divided into groups of three, and were dosed either intravenously (5 mg/kg) or intraperitoneally (10 mg/kg) with FBA-TPQ in PEG 400: ethanol: saline (57.1%:14.3%:28.6%). Before dosing, and at 5, 15, 30, and 60 min, and 2, 4, 8, and 24 h after dosing, groups of animals (three/time point) were anesthetized, and blood was collected from the retro-orbital sinus into heparinized tubes. Plasma was obtained by centrifuging the blood samples at 14,000 rpm for 15 min. FBA-TPQ was then extracted from plasma and stored at −80 °C until analysis. The brain, heart, kidneys, liver, lungs, and spleen were also collected at the same time points during necropsy, blotted on Whatman No. 1 filter paper, trimmed of extraneous fat and connective tissue, weighed, and homogenized in phosphate-buffered saline. The resulting homogenates were stored at −80 °C until further processing and analysis.
The average FBA-TPQ concentrations in plasma and tissues at each of the time points following intravenous and intraperitoneal administrations were used for pharmacokinetic analyses using a one- or two-compartmental model, respectively. The following pharmacokinetic parameters were estimated using Phoenix WinNonlin 6.0 (Mountain View, CA, USA): area under the concentration-time curve (AUC, h·μg/mL), half-life (T½, h), maximum concentration (Cmax, μg/mL), time of the maximum concentration (Tmax, h), and clearance (CL, mL/h/kg), as applicable. Bioavailability (X) was calculated as X = [AUCip × doseiv]/[AUCiv × doseip].

[2] = female, mouse, brain, ip, 10 mg/kg
[3] = female, mouse, brain, iv, 5 mg/kg
[4] = female, mouse, heart, ip, 10 mg/kg
[5] = female, mouse, heart, iv, 5 mg/kg
[6] = female, mouse, kidneys, ip, 10 mg/kg
[7] = female, mouse, kidneys, iv, 5 mg/kg
[8] = female, mouse, liver, ip, 10 mg/kg
[9] = female, mouse, liver, iv, 5 mg/kg
[10] = female, mouse, lungs, ip, 10 mg/kg
[11] = female, mouse, lungs, iv, 5 mg/kg
[12] = female, mouse, plasma, ip, 10 mg/kg
[13] = female, mouse, plasma, iv, 5 mg/kg
[14] = female, mouse, spleen, ip, 10 mg/kg
[15] = female, mouse, spleen, iv, 5 mg/kg

In the case of `O=C1C(NCc2ccc(F)cc2)=CC2=NCCc3c[nH]c1c32` [FBA-TPQ, 7-(4-fluorobenzylamino)-1,3,4,8-tetrahydropyrrolo[4,3,2-de]quinolin-8(1H)-one], the IC50 (Panc-1 cells) is reported as 110 ± 10 nM, the “detectability in mouse plasma” value ([1]; 4 h after iv injection, 5 mg/kg) is reported as “no longer detectable” and the Vss ([1]; brain, ip, 10 mg/kg) is reported as 4.10 mL/g. The AUC [1, 2] was 62.3 ng·h/mL, the half-life [1, 2] was 110 min and the AUC [1, 3] was 138 ng·h/mL. It also gave a half-life [1, 3] of 15.1 min, a clearance ([1]; female, mouse, brain, iv, 5 mg/kg, read-out: Cl (converted)) of 575 mL/min/kg and a Vd [1, 3] of 18.7 L/kg. It also gave an AUC [1, 4] of 2360 ng·h/mL, a half-life [1, 4] of 32.5 min and an AUC [1, 5] of 2000 ng·h/mL. For the same molecule, the half-life [1, 5] was 30.1 min, the clearance ([1]; female, mouse, heart, iv, 5 mg/kg, read-out: Cl (converted)) was 41.2 mL/min/kg and the Vd [1, 5] was 1.77 L/kg. For the same molecule, the AUC [1, 6] was 14700 ng·h/mL, the half-life [1, 6] was 94.8 min and the AUC [1, 7] was 11500 ng·h/mL. For the same molecule, the half-life [1, 7] was 15.1 min, the clearance ([1]; female, mouse, kidneys, iv, 5 mg/kg, read-out: Cl (converted)) was 7.27 mL/min/kg and the Vd [1, 7] was 0.491 L/kg. For the same molecule, the AUC [1, 8] was 1850 ng·h/mL, the half-life [1, 8] was 7.62 min and the AUC [1, 9] was 949 ng·h/mL. It also gave a half-life [1, 9] of 30.6 min, a clearance ([1]; female, mouse, liver, iv, 5 mg/kg, read-out: Cl (converted)) of 78.3 mL/min/kg and a Vd [1, 9] of 3.34 L/kg. The AUC [1, 10] was 5710 ng·h/mL, the half-life [1, 10] was 21.8 min and the AUC [1, 11] was 4020 ng·h/mL. For the same molecule, the half-life [1, 11] was 30.1 min, the clearance ([1]; female, mouse, lungs, iv, 5 mg/kg, read-out: Cl (converted)) was 20.6 mL/min/kg and the Vd [1, 11] was 7.79 L/kg. It also gave a bioavailability ([1]; female, mouse, plasma, intraperitoneal, based on AUC values, ip 10 mg/kg vs iv 5 mg/kg) of 28.9%, an AUC [1, 12] of 338 ng·h/mL and a half-life [1, 12] of 13.1 min. For the same molecule, the concentration at 5 min ([1]; female, mouse, plasma, ip, 10 mg/kg, at 5 min) was 542 ng/mL, the concentration at 2 h ([1]; female, mouse, plasma, ip, 10 mg/kg, at 2 h) was 40.2 ng/mL and the AUC [1, 13] was 583 ng·h/mL. For the same molecule, the half-life [1, 13] was 14.9 min, the Vd [1, 13] was 18.7 L/kg and the clearance ([1]; female, mouse, plasma, single bolus iv dose 5 mg/kg, read-out: clearance rate (converted)) was 141 mL/min/kg. It also gave an AUC [1, 14] of 6500 ng·h/mL, a half-life [1, 14] of 104 min and an AUC [1, 15] of 2330 ng·h/mL. The half-life [1, 15] was 4.86 min, the clearance ([1]; female, mouse, spleen, iv, 5 mg/kg, read-out: Cl (converted)) was 33 mL/min/kg and the Vd [1, 15] was 1.27 L/kg. The Cl ([1]; heart, ip, 10 mg/kg) was 64.2 mL/min/kg, the Vss ([1]; heart, ip, 10 mg/kg) was 2.19 mL/g and the “order of highest overall tissue concentrations” value ([1]; ip, 10 mg/kg) was “kidneys > spleen > lungs > liver > heart > brain”. For the same molecule, the concentration in plasma ([1]; ip, 10 mg/kg, 4 h after administration) was “undetectable levels”, the “order of highest overall concentrations in the tissues examined” value ([1]; iv, 5 mg/kg) was “kidneys > lungs > heart > spleen > plasma ≈ liver > brain” and the Cl ([1]; kidneys, ip, 10 mg/kg) was 13.7 mL/min/kg. It also gave a Vss ([1]; kidneys, ip, 10 mg/kg) of 0.801 mL/g, a Cl ([1]; liver, ip, 10 mg/kg) of 64.2 mL/min/kg and a Cl ([1]; lungs, ip, 10 mg/kg) of 31.3 mL/min/kg. For the same molecule, the Vss ([1]; lungs, ip, 10 mg/kg) was 10.32 mL/g, the Cl ([1]; plasma, ip, 10 mg/kg) was 330 mL/min/kg and the Vss ([1]; plasma, ip, 10 mg/kg) was 21.8 mL/g. It also gave a Cl ([1]; plasma, iv, 5 mg/kg) of 141 mL/min/kg, a Cl ([1]; spleen, ip, 10 mg/kg) of 15.5 mL/min/kg and a Vss ([1]; spleen, ip, 10 mg/kg) of 0.78 mL/g.
